What was measured:
BV2 cells [1] = assay: RT-qPCR of selected genes in BV2 cells with ITI-214, cyclase activators and PKA/PKG inhibitors; type: cell-based, mouse; details: 10 μM forskolin, 5 μM DEANO or 100 nM ANP
Method: In a further experiment a group of genes is selected for further analysis by RT-qPCR. For comparison, genes are analyzed which have been implicated in the scientific literature in microglial and astrocyte activation, including genes in the complement pathway.
All sample values are normalized to an average of 3 reference genes and to vehicle control (ΔΔCt). The error bars represent the mean+/−SEM (n=4). From left to right, for each cytokine grouping, the bars indicate samples treated with: LPS, 0.1 μM 214+LPS, 0.4 μM 214+LPS, 1.1 μM 214+LPS, 3.3 μM 214+LPS, 10 μM 214+LPS, for each particular gene shown on the X-axis. Significant changes between LPS and 10 μM ITI-214+LPS (A) and Vehicle and 10 μM ITI-214 (B) are marked on the X-axis gene names and are calculated using a one-way ANOVA. * p<0.05, **p<0.01, ***p<0.001, ****p<0.0001.
In one particular experiment, BV2 cells are treated with 10 μM forskolin (FSK) to activate adenylyl cyclases, 5 μM DEANO to activate soluble guanylyl cyclase, or 100 nM atrial natriuretic peptide (ANP) to activate particulate guanylyl cyclase. […] Upon combining forskolin with ITI-214 some of the effects of ITI-214 inhibition can be increased. […] However, LIF reverts to LPS-level expression when forskolin is added.
Note that gene expression levels upon addition of PKA or PKG inhibitor to 10 μM ITI-214 are on the order of those relative to LPS treatment alone were reduced to levels equivalent to 3.3 μM ITI-214.

HL60 cells = assay: Total cGMP levels in PMA-differentiated HL60 cells with ANP and ionomycin (competitive ELISA); type: cell-based, human
Method: We have shown that there is a synergistic effect between ANP and PDE1 inhibition. An immortalized human pro-myeloid cell line (HL60 from ATCC) is grown, differentiated and harvested as described in Bender, A T, and Beavo, J A, 2006, PNAS 103, 460-465. The cells are grown in HEPES buffered RPMI 1640 medium with penicillin, streptomycin, and 10% fetal bovine serum. Phorbol-12-myristate-13-acetate (PMA), at 100 nM for 3 days, is used to differentiate the HL60 cells into macrophage-like cells. Following differentiation, the cells are incubated with a PDE1 inhibitor or vehicle (DMSO) beginning at time 0. At 40 minutes, 5 μM ionomycin (a calcium ionophore) is added. At 50 minutes, 100 nM ANP was added. At 60 minutes, the cells are harvested. Total cGMP levels are measured using a competitive ELISA (Bender and Beavo, 2006).

retinal ganglion cells = assay: Optic nerve injury (optic crush) model; type: in vivo, mouse; details: mice; intraocular injection after optic nerve injury; 14 days; FIG. 12
Method: A PDE1 inhibitory compound is tested in an optic nerve injury model (i.e., the “optic crush” model). The studies described below are carried out using the selective PDE1 inhibitor IC200041, which has the following structure:
In this model, optic nerve surgeries are carried out on male mice 8 wk of age (average body weight, 20-26 g) under general anesthesia, as described previously (Yin Y, et al., Oncomodulin links inflammation to optic nerve regeneration. Proc Natl Acad Sci USA. 2009; 106:19587-19592). Following nerve injury, 3 μl of fluid is removed from the eye and a solution containing the PDE1 inhibitory compound is injected intraocularly.
A total of 4 mouse retinas are treated with the PDE1 inhibitor, and phosphate buffered saline (PBS) is administered to a total of 10 mouse retinas as a control. Mice are typically euthanized with an overdose of anesthesia 14 days after optic nerve injury and are perfused with saline and 4% paraformaldehyde (PFA). These mice are 10 weeks old when killed. Optic nerves and eyes are dissected and postfixed in PFA. […] Axons are counted manually in at least 8 longitudinal sections per case at pre-specified distances from the injury site, and these numbers were converted into the number of regenerating axons at various distances.

BV2 cells [2] = assay: Quantitative PCR of inflammatory cytokine mRNA in LPS-treated BV2 cells; type: cell-based, mouse
Method: Levels of IL1β are measured using quantitative PCR of IL1β mRNA. IL1β is considered a marker of inflammation. Results are depicted in FIG. 2 (RQ: relative quantification of changes in gene expression in treated versus control samples; ***p<0.01 vs control, √p<0.01 vs LPS alone; ANOVA with Newman-Keuls post-hoc test).
BV2 cells are pretreated with compound, ITI-214 or rolipram, a PDE4 inhibitor, then stimulated with 50 ng/ml LPS for 4 hours. Expression levels of TNF, IL1β, Ccl2, and IL6 are measured. Normalized mRNA levels are shown as change from vehicle (ΔΔCt) and compared using a one-way ANOVA. […] The mRNA transcripts for TNF, IL1β, and Ccl2—three of the four cytokines studied in vivo—were elevated in BV2 cells treated with 50 ng/ml LPS.
(§1) The test compound is added first, the LPS is added one hour later, and the cells and/or media are harvested at five hours from commencement of the experiment.
(§2) RTqPCR: RNA from BV2 cells purified using RNeasyKit (Qiagen) and from mouse tissue using TRIzol (Ambion). TaqMan primer-probe assays from Thermo Fisher. mRNA levels for all conditions are normalized to GAPDH and to vehicle control (ΔΔCt). Data are analyzed statistically using one-way ANOVA with the Bonferroni post-test for multiple comparisons.

BV2 cells [3] = assay: RNAseq analysis of LPS-stimulated BV2 cells, differentially expressed transcripts; type: cell-based, mouse; details: for genes significantly affected by this compound but not the other (Compound 214 / Rolipram): LPS-stimulated BV2 cells
Method: as §1
RNASeq: Flashfreeze BV2cells, isolate RNA, prepare a library using polyA selection, and conduct 1×50 bp single read sequencing on the Illumina HiSeq 2500 in High Output mode (using V4 chemistry). Genes are mapped to reference genome (GRCm38) using CLC Genomics Server. Number of reads per sample average ˜17 million. Differential gene expression analysis is performed using DESeq2software (Bioconductor.org). Differentially expressed genes (p<0.01, Waldtest) are reported as log 2(fold change).

[4] = system: inflammatory gene expression in mouse striatum; assay: Inflammatory gene expression in mouse striatum after LPS (Q-PCR); type: in vivo; details: Striatum Mouse + LPS; initial results
Method: as §2
The results are based upon an evaluation of samples using Q-PCR.
Data from a further experiment measuring the effect of PDE1 inhibition on inflammatory gene expression in mouse striatum is depicted in FIG. 7. […] Striatal tissue is isolated and flash frozen, and RNA is extracted. Measurements from RT-qPCR are shown as log 2 fold change (2ΔΔCt). n=4 *p<0.05, **p<0.01, ***p<0.001, ****p<0.0001.
Data from yet another experiment measuring the effect of PDE1 inhibition on inflammatory gene expression in mouse striatum is depicted in FIG. 8. […] Striatal tissue is analyzed for mRNA levels of TNF, IL1β, Ccl2, and IL6. Expression levels are shown as change in Q-PCR signal from vehicle (ΔΔCt) and compared using an ANOVA. * p<0.05, **p<0.01, ***p<0.001.

[5] = BV2 cells, Compound 214 at 10 μM, FIG. 4a

CCN(CC)/[N+]([O-])=N/[O-].[Na+] [DEANO, reference compound] was tested, and the “effect of the activator alone on LPS induction of the selected genes” value (BV2 cells [1]) was “little or no effect”.
For CN1C(=O)c2c(nn(Cc3ccc(C(F)(F)F)cc3)c2Nc2ccccc2)N2C1=N[C@@H]1CCC[C@@H]12 [Example 20 of U.S. Pat. No. 8,273,750, (6aR,9aS)-3-(phenylamino)-5,6a,7,8,9,9a-hexahydro-5-methyl-2-(4-(trifluoromethyl)-benzyl)-cyclopent[4,5]imidazo[1,2-a]pyrazolo[4,3-e]pyrimidin-4(2H)-one], the “cGMP level, ANP in combination with the PDE1 inhibitor versus either alone” value (HL60 cells; 100 nM ANP + 100 nM PDE1 inhibitor) was “greater”, the “decreasing cGMP signal caused by activation of PDE1 by ionomycin” value (HL60 cells; PDE1 inhibitor + sub-optimal ANP, ionomycin 5 μM) was “synergistically prevented” and the “cGMP level, co-treatment with ANP and the PDE1 inhibitor versus ANP and SCH 51866” value (HL60 cells; SCH 51866 used at 5 μM) was “much greater”. The “effect of ionomycin on cGMP when combined with ANP and the PDE1 inhibitor” value (HL60 cells; ionomycin 5 μM) was “only a weak cGMP lowering effect”.
With CN1C(=O)c2c(nn(Cc3ccc(-c4ccccn4)cc3)c2Nc2ccccc2)N2C1=N[C@@H]1CCC[C@@H]12 [IC200041] the “survival of retinal ganglion cells compared with the PBS control” value (retinal ganglion cells) was “highly effective”.
With CC[C@H](C)[C@@H]1NC(=O)[C@H](CCCNC(=N)N)NC(=O)[C@H](CC(=O)O)NC(=O)[C@H](CCSC)NC(=O)[C@H](CCCNC(=N)N)NC(=O)CNC(=O)CNC(=O)[C@H](Cc2ccccc2)NC(=O)[C@@H](NC(=O)[C@H](CO)NC(=O)[C@H](CO)NC(=O)[C@H](CCCNC(=N)N)NC(=O)[C@H](CCCNC(=N)N)NC(=O)[C@H](CC(C)C)NC(=O)[C@@H](N)CO)CSSC[C@@H](C(=O)N[C@@H](CC(N)=O)C(=O)N[C@@H](CO)C(=O)N[C@@H](Cc2ccccc2)C(=O)N[C@@H](CCCNC(=N)N)C(=O)N[C@@H](Cc2ccc(O)cc2)C(=O)O)NC(=O)CNC(=O)[C@H](CC(C)C)NC(=O)CNC(=O)[C@H](CO)NC(=O)[C@H](CCC(N)=O)NC(=O)[C@H](C)NC(=O)CNC1=O [atrial natriuretic peptide, reference compound] the “effect of the activator alone on LPS induction of the selected genes” value (BV2 cells [1]) was “little or no effect”.
COc1ccc(C2CNC(=O)C2)cc1OC1CCCC1 (stereo not shown) [rolipram, reference compound] was tested, and the “Chemokine (C-C) motif Ligand 2 expression (Q-PCR)” value (BV2 cells [2]; BV2 + LPS, initial results) was “Down”, the “Interleukin 1 beta expression (Q-PCR)” value (BV2 cells [2]; BV2 + LPS, initial results) was “UP UP” and the “Tumor necrosis factor expression (Q-PCR)” value (BV2 cells [2]; BV2 + LPS, initial results) was “Down”. For the same compound, the “LPS-induced increase in expression of Ccl2” value (BV2 cells [2]; [5]) was “reducing”, the “LPS-induced increase in expression of IL1β” value (BV2 cells [2]; [5]) was “increasing” and the “LPS-induced increase in expression of TNFα” value (BV2 cells [2]; [5]) was “reducing”. For the same compound, the “mRNA transcripts decreased in the presence of LPS + compound vs. LPS alone” value (BV2 cells [3]; BV2 cells, RNAseq) was 209 transcripts, the “transcripts elevated in the presence of LPS + compound vs. LPS alone” value (BV2 cells [3]; BV2 cells, RNAseq) was 156 transcripts and the “genes significantly affected by this compound but not the other (Compound 214 / Rolipram)” value (BV2 cells [3]; further RNASeq analysis) was 251 genes. The “genes significantly affected by this compound but not the other (Compound 214 / Rolipram)” value (BV2 cells [3]; still a further experiment) was 1463 genes, the “Chemokine (C-C) motif Ligand 2 expression (Q-PCR)” value [4] was “Down” and the “Interleukin 1 beta expression (Q-PCR)” value [4] was “UP-UP”. For the same compound, the “Interleukin 6 expression (Q-PCR)” value [4] was “UP-UP”, the “Oncostatin M expression (Q-PCR)” value [4] was “Down” and the “Tumor necrosis factor expression (Q-PCR)” value [4] was “Down”.

— US11291666B2, “Uses” (INTRA-CELLULAR THERAPIES, INC., priority 2016, dated 2022)
